Measurements taken from US10416153B2, “Chemical fluorescent probes for detecting biofilms” (priority 2015, dated 2019).

Legend:
[1] = target: purified amyloid (Pseudomonas aeruginosa, UniProt Q9I2F0); experiment: Surface plasma resonance assay with purified amyloid immobilized on chips; format: binding
Method: In a biofilm screening, two different types of biofilms (biofilm versus amyloid deficient biofilm) were treated with compounds and hits were identified by selective staining of biofilms containing amyloid structures. Thus, the binding affinity of four compounds with the purified amyloid subunit (fibril) protein was validated by surface plasma resonance assay. The subunit protein was immobilized on chips and each of compounds was flowed continuously. Thioflavin T, BDN1 B2 and BDNAC3 E6 were tested with hit compounds. […] (A) TEM images of purified amyloid proteins. Scale bar=400 nm. (B) Surface plasma resonance assay of four amyloid targeting compounds with purified amyloid.
Amyloids were prepared in HEPES buffer (0.01 M HEPES, pH 7.4, 0.15 M NaCl, 3 mM EDTA and 0.005% P20). Amyloid fibers were fragmented with sonication at 80 Hz for 10 s and centrifuged at 14 000 g for 30 s to remove any large fibers. Concentrate (40 μL) was mixed with 10 mM sodium acetate (120 μL), pH 5.5 right before immobilization.
SPR experiments were performed at 25° C. using Biacore T-200 biosensor with research grade CM5-S sensor chips (Biacore, GE Healthcare). Carboxymethylated CM5-S chips were activated using 70 μL of 0.2 M 1-ethyl-3-[3-(dimethylamino)propyl] carbodiimide hydrochloride (EDC) and 0.05 M N-hydroxysuccinimide (NHS) in a 1:1 ratio. Amyloid in sodium acetate solution (100 μL) was injected over the activated surface until an immobilization level of 7700 response units (RU) was reached. Ethanolamine hydrochloride (1.0 M), pH 8.5 was injected across the surface for 5 min to block any residual activated-unreacted carboxyl groups. Compounds were dissolved into HEPES buffer containing final concentration of 5% DMSO and serially diluted to 340 nM, 1.03, 3.09, 9.26, 27.78, 83.33 μM. Tht+ was prepared similarly as positive control. Replicates of the diluted compounds were injected across a unmodified flow cell and amyloid-immobilized flow cell in a serial manner for association phase of 60 s followed by dissociation phase of 5 min. […] The chip surface was rinsed using HEPES buffer. All sensorgrams were double-referenced with responses from unmodified channel and blank HEPES buffer injections. Equilibrium responses from the compounds were plotted against logarithmic of their corresponding concentrations where the binding affinities were calculated from 50% saturation.
First batch of screening was done under varying amyloid expression conditions for specifically isolating amyloid targeting compounds and four compounds were isolated from cell based screening. […] Finally, four compounds were examined by surface plasma resonance assay whether those have binding specificity with putative target, namely amyloid. Four hit compounds were examined with thioflavin T and two negative controls on chips after immobilizing purified amyloid.

[2] = test system: P. aeruginosa biofilm (PAO1-GFP); experiment: Mouse implant model, silicone tubes coated with PAO1-GFP biofilm; format: in vivo, BALB/c mice; details: 100 μM (200 μL) injected via the peritoneal cavity, 2 h before recovering implants; listed as CDy11
Excerpt: (§1) CLSM images of a GFP tagged P. aeruginosa PAO1 strain colonizing silicone implants after removal from BALB/c mice at day 1 post insertion. Green fluorescent areas represent P. aeruginosa. Insertion of silicone tube into mice which was precoated with (A) PAO1Δfap-GFP and (B) PAO1-GFP biofilms. Images of the microcolonies adhering to the silicone implants with CDy11. Only PAO1-GFP biofilms coated silicone tube was stained by CDy11; Scale bars=10 μm.
(§2) One bacterial colony (PAO1-GFP) was picked up from the plate to inoculate an overnight culture in LB (Luria Broth) media in 37° C. incubator with 110 rpm/min for 20 h. Silicone tubes (Ole Dich) were cut with a thickness of 4 mm and were sterilized in 0.5% NaClO for overnight. Next day, 25 mL of overnight cultured media was transferred to 50 mL conical tube and pellet was collected by centrifuging at 3000 rpm for 10 min. Subsequently, pellet was suspended with 2 mL of LB media before optical density was observed under 600 nm wavelength.
(§3) Sterilized silicone was washed twice in 0.9% NaCl solution. Silicone tubes (8 pieces) in 50 mL flask were incubated with 10 mL of diluted bacteria (OD600=0.1) in 0.9% NaCl solution in rotationary shaker at 37° C. with 110 rpm/min for 20 h. […]
(§4) All silicone tubes were collected after 2 h incubation to observe CDy11 fluorescence of the inner surface of the silicone tube by means of laser confocal scanning microscopy. […]

[3] = test system: Immune cells; experiment: Mouse implant model, silicone tubes without P. aeruginosa precoating; format: in vivo, BALB/c mice; details: same amount injected via the peritoneal cavity; data not shown
Method: After anesthesia of mice with ketamine/xylazine mix by intraperitoneal injection, the mouse was placed ventral side up on plate. Fur was clipped and the skin was swabbed with 70% ethanol. An incision of approximately 0.5-1 cm was made in the left groin area. Then an implant prepared the day before was inserted into peritoneal cavity via the incision. The incision was closed with a suture and healed on a warm pad at 26-28° C.
The inventors also applied a mouse implant model to test the capacity of CDy11 (BDNAC3 D8) to detect P. aeruginosa biofilms in a surgical format. Silicone tubes were precolonized by bacteria and subsequently inserted into the peritoneal cavity 1 day before the experiment. BALB/c mice were assigned to each of the two groups and 100 μM CDy11 (200 μL) was injected into the mice via the peritoneal cavity 2 h before recovering the implants. As a mock control, a similar volume of buffer was injected into the second set of mice. In addition, CDy11 was injected into a set of mice which had been installed with uncolonized silicone tubes in the peritoneal cavity.
All silicone tubes were collected after 2 h incubation to observe CDy11 fluorescence of the inner surface of the silicone tube by means of laser confocal scanning microscopy. […] The silicone tubes without P. aeruginosa precoating were also examined by injection of same amount of CDy11. […]

[4] = test system: PAO1Δfap-GFP strain biofilm; experiment: Mouse implant model, silicone tubes coated with PAO1Δfap-GFP biofilm; format: in vivo, BALB/c mice; details: 100 μM (200 μL) injected via the peritoneal cavity, 2 h before recovering implants
Excerpt: as §1, §2, §3, §4

[5] = test system: P. aeruginosa (PAO1-GFP); experiment: Eye infection model, imaging of infected cornea under TRITC channel; format: in vivo; details: mouse cornea infected with PAO1-GFP for 2 days, 10 minutes incubation with compound
Method: (A) Propagation of Pseudomonas aeruginosa (PAO1-GFP) after infecting into mouse eyes. GFP signals were detected after 12 hours later after infecting bacteria and signals were fully saturated after 24 hours later; Scale bar=2 mm. (B) Tests of amyloid targeting compounds in eye infection models. The model was generated by inoculation of a GFP tagged P. aeruginosa PAO1 strain into the eye after making scratches in cornea. Images were taken in bright field and TRITC from ketamine/xylazine anesthetized mice and compounds signals were examined under TRITC channel after incubation with compounds for 10 minutes at room temperature. Scale bar=2 mm.
P. aeruginosa (PAO1-GFP) was grown at 37° C. in ABTGC media for 16 h. 500 μL of cultured PAO1-GFP was transferred to 1.5 mL Eppendorf tube and centrifuged at 14 000 g for 3 min. Supernatant was removed and pellet was washed with PBS buffer 3 times. Finally, pellet was resuspended in 250 μL of PBS buffer.
Mice were anesthetized ketamine/xylazine by peritoneal injection before scratches were made in cornea with blade. PAO1-GFP (1 μL, 2×107˜10^8 CFU) dissolved in PBS buffer was treated in left eye and PBS buffer was treated in right eye. P. aeruginosa inoculated mice were incubated for 2 days before in vivo experiments. Animal handling was in accordance with the Institutional Aminal Care and Use Committee of Singapore Bioimaging Consortium (Agency of Science, Technology and Research, Singapore).
Biofilm is stained by amyloid targeting compounds through interacting with FAP proteins which is one of the components for intact biofilm. Thus, amyloid targeting compounds were tested in eye infection model which is one of the naturally reported symptoms of P. aeruginosa containing biofilms. Eye infection model was generated in black mouse. […] GFP signals were detected after 12 hours incubation with P. aeruginosa-GFP bacteria.
Fluorescence signals under TRITC channel were checked to confirm infection on cornea and amyloid compounds were tested under TRITC channel after incubation for 10 minutes. […]

Sequence of purified amyloid (Q9I2F0 25-340): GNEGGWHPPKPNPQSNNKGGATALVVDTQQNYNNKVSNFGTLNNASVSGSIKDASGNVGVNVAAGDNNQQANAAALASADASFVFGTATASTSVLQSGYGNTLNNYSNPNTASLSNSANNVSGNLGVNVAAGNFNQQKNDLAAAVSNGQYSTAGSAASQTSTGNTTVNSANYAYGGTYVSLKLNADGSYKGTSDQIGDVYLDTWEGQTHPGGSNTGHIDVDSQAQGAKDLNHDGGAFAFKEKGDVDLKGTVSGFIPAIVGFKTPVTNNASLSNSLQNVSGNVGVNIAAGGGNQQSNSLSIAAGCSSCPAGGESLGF

Row | Compound | Kd [1] | staining of PAO1-GFP biofilm coated silicone tube [2] | staining of immune cells in silicone tubes without P. aeruginosa precoating [3] | staining of PAO1Δfap-GFP biofilm coated silicone tube [4] | visualization of infected eyes [5]
1 | COc1ccc(/C=C/c2cc(C)c3n2[B-](F)(F)[N+]2=CC=CC2=C3c2ccc(NC(C)=O)cc2)c(F)c1 [BDNAC3 D8] | 29 ± 2 µM | specifically stained | not stained | not stained | visualized
2 | Cc1cc(/C=C/c2ccc(-c3ccc([N+](=O)[O-])cc3)o2)n2c1C(c1ccc(N)cc1)=C1C=CC=[N+]1[B-]2(F)F [BDN3 G7] | 28 ± 5 µM |  |  |  | visualized
3 | COc1cc(/C=C/c2cc(C)c3n2[B-](F)(F)[N+]2=CC=CC2=C3c2ccc(N)cc2)c(Br)c(Br)c1O [BDN3 F3] | 16 ± 1 µM |  |  |  | 
4 | Cc1ccc2c(c1)sc(-c1ccc(N(C)C)cc1)[n+]2C [thioflavin T, reference compound] | 85 ± 7 µM |  |  |  | 
5 | COc1cc(Cl)cc(/C=C/c2cc(C)c3n2[B-](F)(F)[N+]2=CC=CC2=C3c2ccc(N)cc2)c1OC [BDN2 H2] | 61 ± 3 µM |  |  |  | visualized
